Experiments:
hERG channel = target: T1, hERG channel (Homo sapiens, UniProt Q12809); assay: Patch clamp assay to test the effect of compound on hERG channel; type: cell-based; conditions: manual patch clamp, HEK 293 cells expressed with hERG, concentration for half maximum effect
T1 construct: expressed in transfected cells; host or cells: HEK-293
Procedure: 10 mL extracellular solution was used to dilute the stock solution, making the final concentrations of test compound were 0.3 μM, 1 μM, 3 μM, 10 μM and 30 μM.
The solubility of compound was visually observed.
The cell line was derived from HEK-293 cells, and grown in a humidified environment at 37° C. under 5% CO2, using the media formulation below. The cell line should not be allowed to exceed 80% confluence within the culture vessel to prevent contact inhibition causing senescence and should thus be passaged every 3/4 days using a seeding density of 2*10^6 cells per T175 flask. Cell lines were be pre-washed with phosphate buffered saline before harvesting with Trypsin/EDTA and seeded into new flasks.
HEK 293 cells expressed with hERG were plated on cover slips overnight with the cell density less than 50% of confluence. Cells used for electrophysiological study were transferred to a small cell bath (1 mL) mounted on the stage of an inverted microscope (Diaphot, Nikon) and were perfused with external solution containing (in mM) 130 NaCl, 4 KCl, 1.8 CaCl2), 1 MgCl2, 10 glucose and 10 HEPES (pH 7.4 with NaOH), the perfusion rate was 4 mL/min. The internal pipette solution contained (in mM) 130 KCl, 1 MgCl2, 5 ethylene glycol-bis(baminoethyl ether)-N,N,N8,N8-tetraacetic acid, 5 MgATP and 10 HEPES (pH 7.2 with KOH). An HEKA EPC-10 patch-clamp amplifier and PATCHMASTER acquisition program were used to record membrane currents (HEKA Instruments IncD-67466 Lambrecht/Pfalz Germany). All experiments were performed at room temperature (22-23° C.).
The Model P-97 micropipette puller (Sutter Instrument Company, One Digital Drive, Novato, Calif. 94949) was used to pull glass patch pipettes (BF150-86-10) in all experiments.
The experiments were initiated with a 2 min vehicle control period after forming a whole cell configuration with less 5% run-down in 5 min and the tail currents in the report were at least greater than 500 pA. After a 2 min vehicle control period, the perfusion was switched to the reservoir containing the compound at the first concentration. The same procedure was repeated 3-5 times so that each cell was exposed to 4-6 escalating concentrations of compound. The time courses for block and unblock of hERG during compounds exposure and washout were continuously recorded.
The peak tail of hERG was generated by applying 2-sec depolarizing every 12 sec steps from a holding potential of −80 mV, the peak of tail currents were measured at a 5-sec repolarizing pulse at −50 mV.
hERG peak tail currents were directly measured from a 5 sec repolarization pulse at −50 mV. The fraction of control current was plotted as a function of logarithm of compound concentration. To determine the concentration of compound for halfmaximum effect, the concentration-response curve was fitted by Hill equation as shown follow.
where Y is the observed value, Bottom is the lowest observed value (0), Top is the highest observed value (1), and the Hillcoefficient gives the largest absolute value of the slope of the curve.
Data were analyzed by a combination of PATCHMASTER ((HEKA Instruments IncD-67466 Lambrecht/Pfalz Germany) and Origin (OriginLab Corporation, Northampton, Mass.) software programs.
Data were expressed as mean±SEM.

[1] = tested on: lung cancer NCI-H358 cell; assay: Cell proliferation assay (CellTiter-Glo), NCI-H358; type: cell-based; conditions: Homo sapiens; NCI-H358, 96 hrs, CTG; class symbols; read-out: Compound on NCI-H358 cell IC50
Procedure: (§1) The effects of the compounds on the proliferation of leukemia MV-4-11 cell and lung cancer NCI-H358 cell were evaluated by in vitro cell test. The assay used in this study was the CELL TITER-GLO (CTG) luminescence assay, which can detect the number of living cells by quantitative determination of ATP. Because ATP is involved in a variety of enzymatic reactions in vivo and is an indicator of the metabolism of living cells, its content can directly reflects the number and state of cells. During the experiment, Celltiter-Glo™ reagent was added to the cell culture medium to measure the luminescence value. The luminescence value was proportional to the amount of ATP, which in turn was positively correlated with the number of living cells. Therefore, ATP content can be used to detect cell viability.
A bottle of NCI-H358 cells in logarithmic growth phase was taken, the cells were digested and resuspend, counted, and then the cell density was adjusted. After that, the cells were inoculated into a 96-well Ultra-Low Attachment Microplate (Corning #3474), 2000 cells were inoculated in each well, and the well plate was placed in an incubator at 37° C. and 5% CO2, and the compounds of the invention were added for conducting.
(§2) An appropriate amount of the compound of the invention was taken for cell treatment, and the final concentration of the compound from high to low was 1000 nM, 333.3 nM, 111.1 nM, 37.04 nM, 12.35 nM, 4.115 nM, 1.372 nm, 0.4572 nM, 0.1524 nM, 0 nM, respectively. The orifice plate was cultured in an incubator at 37° C. and 5% CO2. Only adding medium without adding cell hole was set as blank group. Compound concentration of 0 nM group was zero control group.
NCI-H358 cells were cultured for 96 hrs, then 50 μL CellTiter-Glo® Luminescent cell viability assay solution was added to each well, and the cells were gently shaken for 2 mins, and incubated at room temperature for 10 mins. The cell reaction system was transferred to 96-well Microplate (Corning #3917). The detection values of each well were read on the multi-functional microplate reader.
(§3) The inhibition rate is calculated according to the luminous value reading,
(§4) Inhibition rate %=(1−(administration group value−blank group value)/(control group value−blank group value)*100
(§5) The log (inhibitor) vs. response variable slope of GraphPad Prism was used to fit the dose-response curve and calculate the IC50 of compounds inhibiting cell proliferation.

leukemia MV-4-11 cell = assay: Cell proliferation assay (CellTiter-Glo), MV-4-11; type: cell-based; conditions: Homo sapiens, MV4-11; MV-4-11, 120 hrs, CTG; class symbols; read-out: Compound on MV-4-11 cell IC50
Procedure: as §1
A bottle of MV-4-11 cells in logarithmic growth phase was taken, the cells were collected, centrifuged, resuspend, counted, and then inoculated into 96-well Microplate (Corning #3917), with 4000 cells inoculated in each well. The plates were placed in an incubator at 37° C. and 5% CO2 for 24 hrs culture, and the compounds of the invention were added for conducting.
as §2
After cultured for 120 hrs, MV-4-11 cells were added with 50 μL CellTiter-Glo® Luminescent cell viability assay solution in each well, gently shaken for 2 mins, and incubated at room temperature for 10 mins. The detection values of each well were read on the multi-functional microplate reader.
as §3, §4, §5

SHP2 = target: T2, SHP2 (Homo sapiens, UniProt Q06124); assay: SHP2 allosteric inhibitor enzyme activity assay (DiFMUP fluorescence); type: biochemical
T2 sequence (Q06124 1-593): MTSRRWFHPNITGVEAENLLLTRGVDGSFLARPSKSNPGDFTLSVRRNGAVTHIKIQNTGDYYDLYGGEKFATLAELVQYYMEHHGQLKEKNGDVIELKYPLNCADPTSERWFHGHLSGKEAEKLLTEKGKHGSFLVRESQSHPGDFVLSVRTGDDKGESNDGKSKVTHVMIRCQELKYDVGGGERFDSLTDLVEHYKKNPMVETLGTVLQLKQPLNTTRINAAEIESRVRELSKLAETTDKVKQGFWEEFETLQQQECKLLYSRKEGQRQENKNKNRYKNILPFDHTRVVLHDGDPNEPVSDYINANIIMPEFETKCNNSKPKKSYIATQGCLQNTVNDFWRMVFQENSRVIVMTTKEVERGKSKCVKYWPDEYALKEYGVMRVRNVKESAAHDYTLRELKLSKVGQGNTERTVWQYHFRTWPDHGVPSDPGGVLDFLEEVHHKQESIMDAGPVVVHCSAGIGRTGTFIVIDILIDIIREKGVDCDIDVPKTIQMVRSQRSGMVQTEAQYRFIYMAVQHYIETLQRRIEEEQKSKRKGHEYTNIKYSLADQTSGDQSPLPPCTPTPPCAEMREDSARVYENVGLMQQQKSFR
In short: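 SHP2 activated by 0.5 μM IRS1_pY1172(dPEG8)pY1222 peptide, 0.2 ng enzyme per well, 1 h at room temperature with compound (1 μM top, 3-fold series), then DiFMUP substrate 1 h. Buffer: 60 mM HEPES, 75 mM NaCl, 75 mM KCl, 0.05% BRIJ-35, 1 mM EDTA, 5 mM DTT. Fluorescence ex 340/em 450 nm; IC50 by variable-slope fit.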

T1 sequence (Q12809 whole entry): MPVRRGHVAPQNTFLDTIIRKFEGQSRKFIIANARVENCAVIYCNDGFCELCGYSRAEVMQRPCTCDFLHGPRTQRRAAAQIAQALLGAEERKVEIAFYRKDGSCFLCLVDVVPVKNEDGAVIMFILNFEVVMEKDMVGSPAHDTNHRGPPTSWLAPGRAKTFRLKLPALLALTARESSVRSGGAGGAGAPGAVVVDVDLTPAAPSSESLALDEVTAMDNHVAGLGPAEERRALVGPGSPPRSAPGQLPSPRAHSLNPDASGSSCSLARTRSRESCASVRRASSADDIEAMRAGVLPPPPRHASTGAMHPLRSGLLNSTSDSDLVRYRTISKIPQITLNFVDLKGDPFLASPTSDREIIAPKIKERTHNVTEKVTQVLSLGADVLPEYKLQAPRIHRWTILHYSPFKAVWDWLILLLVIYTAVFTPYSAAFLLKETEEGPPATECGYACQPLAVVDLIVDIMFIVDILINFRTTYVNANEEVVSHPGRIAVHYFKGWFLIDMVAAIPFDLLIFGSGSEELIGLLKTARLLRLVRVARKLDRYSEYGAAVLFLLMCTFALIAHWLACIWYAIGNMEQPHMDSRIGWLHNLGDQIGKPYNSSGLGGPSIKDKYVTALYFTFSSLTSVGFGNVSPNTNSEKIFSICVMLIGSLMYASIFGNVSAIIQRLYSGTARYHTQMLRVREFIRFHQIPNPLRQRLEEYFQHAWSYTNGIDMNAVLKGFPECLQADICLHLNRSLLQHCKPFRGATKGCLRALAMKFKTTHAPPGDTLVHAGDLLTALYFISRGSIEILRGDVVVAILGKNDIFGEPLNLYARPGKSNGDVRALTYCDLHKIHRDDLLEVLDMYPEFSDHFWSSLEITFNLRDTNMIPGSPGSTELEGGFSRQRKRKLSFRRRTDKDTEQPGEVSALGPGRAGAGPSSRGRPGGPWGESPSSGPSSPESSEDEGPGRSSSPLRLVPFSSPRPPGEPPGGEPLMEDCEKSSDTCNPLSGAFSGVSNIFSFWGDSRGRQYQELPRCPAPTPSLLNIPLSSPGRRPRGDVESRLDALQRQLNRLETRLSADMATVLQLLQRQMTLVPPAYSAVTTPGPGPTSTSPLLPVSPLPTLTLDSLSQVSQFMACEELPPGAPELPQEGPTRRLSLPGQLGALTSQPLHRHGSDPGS

| SMILES | IC50 (hERG channel) | IC50 [1] | IC50 (leukemia MV-4-11 cell) | IC50 (SHP2; numeric values) | IC50 (SHP2; class symbols) |
| --- | --- | --- | --- | --- | --- |
| COc1ccc(C2(c3n[nH]c4nc(N5CCC6(CC5)Cc5ccccc5[C@H]6N)[nH]c(=O)c34)CC2)cc1 [Example 19, (S)-6-(1-amino-1,3-dihydrospiro[indene-2,4′-piperidin]-1′-yl)-3-(1-(4-methoxyphenyl)cyclopropyl)-1,5-dihydro-4H-pyrazolo[3,4-d]pyrimidin-4-one] | 11700 nM | 20 to 60 nM | ≤ 20 nM | – | – |
| N[C@@H]1c2ccccc2CC12CCN(c1nc3[nH]nc(C4(c5cccc(-n6cccn6)c5)CC4)c3c(=O)[nH]1)CC2 [Example 38, (S)-3-(1-(3-(1H-pyrazol-1-yl)phenyl)cyclopropyl)-6-(1-amino-1,3-dihydrospiro[indene-2,4′-piperidin]-1′-yl)-1,5-dihydro-4H-pyrazolo[3,4-d]pyrimidin-4-one] | 14200 nM | – | – | 3.1 nM | – |
| N[C@@H]1c2ccccc2CC12CCN(c1nc3[nH]nc(C4(c5cccc(O)c5)CC4)c3c(=O)[nH]1)CC2 [Example 42, (S)-6-(1-amino-1,3-dihydrospiro[indene-2,4′-piperidin]-1′-yl)-3-(1-(3-hydroxyphenyl)cyclopropyl)-1,5-dihydro-4H-pyrazolo[3,4-d]pyrimidin-4-one] | > 30000 nM | – | – | 1.9 nM | – |
| N[C@@H]1c2ccccc2CC12CCN(c1nc3[nH]nc(C4(c5ccccc5)CCC4)c3c(=O)[nH]1)CC2 [Example 90] | 4950 nM | – | – | – | ≤ 20 nM |
| N[C@@H]1c2ccccc2CC12CCN(c1nc3[nH]nc([C@H]4C[C@@H]4c4ccccc4)c3c(=O)[nH]1)CC2 [Example 185] | 590 nM | – | – | 0.48 nM | – |
| CCC(c1ccccc1)c1n[nH]c2nc(N3CCC4(CC3)Cc3ccccc3[C@H]4N)[nH]c(=O)c12 (stereo partly drawn) [Example 217, 6-((S)-1-amino-1,3-dihydrospiro[indene-2,4′-piperidin]-1′-yl)-3-(1-phenylpropyl)-1,5-dihydro-4H-pyrazolo[3,4-d]pyrimidin-4-one] | 540 nM | – | – | – | ≤ 20 nM |
| COc1ccc(C2(c3n[nH]c4nc(N5CCC6(CC5)Cc5ccccc5[C@H]6N)[nH]c(=O)c34)CC2)cc1OC [Example 221, (S)-6-(1-amino-1,3-dihydrospiro[indene-2,4′-piperidin]-1′-yl)-3-(1-(3,4-dimethoxyphenyl)cyclopropyl)-1,5-dihydro-4H-pyrazolo[3,4-d]pyrimidin-4-one] | > 30000 nM | – | – | – | ≤ 20 nM |
| CCOC(=O)Nc1ccc(C2(c3n[nH]c4nc(N5CCC6(CC5)Cc5ccccc5[C@H]6N)[nH]c(=O)c34)CC2)cc1 [Example 231, ethyl (S)-(4-(1-(6-(1-amino-1,3-dihydrospiro[indene-2,4′-piperidin]-1′-yl)-4-oxo-4,5-dihydro-1H-pyrazolo[3,4-d]pyrimidin-3-yl)cyclopropyl)phenyl)carbamate] | 7500 nM | 20 to 60 nM | ≤ 20 nM | – | – |
| N[C@@H]1c2ccccc2CC12CCN(c1nc3[nH]nc(C4(c5nc6ccccc6o5)CC4)c3c(=O)[nH]1)CC2 [Example 252, (S)-6-(1-amino-1,3-dihydrospiro[indene-2,4′-piperidin]-1′-yl)-3-(1-(benzo[d]oxazol-2-yl)cyclopropyl)-1,5-dihydro-4H-pyrazolo[3,4-d]pyrimidin-4-one] | 20900 nM | – | – | – | ≤ 20 nM |
| N[C@@H]1c2ccccc2CC12CCN(c1nc3[nH]nc(C4(n5cccn5)CC4)c3c(=O)[nH]1)CC2 [Example 255, (S)-3-(1-(1H-pyrazol-1-yl)cyclopropyl)-6-(1-amino-1,3-dihydrospiro[indene-2,4′-piperidin]-1′-yl)-1,5-dihydro-4H-pyrazolo[3,4-d]pyrimidin-4-one] | > 30000 nM | – | – | – | – |
